Tests used:
[1] = Available chlorine concentration after impregnating diluent in treatment sheet; format: physicochemical
Description: (1) The available chlorine concentration of the “chlorous acid aqueous solution formulation (see Example 1: Table 11)” was measured, and the formulation was diluted to an available chlorine concentration of 1000 ppm [chlorous acid (HClO2) concentration: 489 ppm] or 500 ppm [chlorous acid (HClO2) concentration: 245 ppm]. (2) The available chlorine concentration of sodium hypochlorite was measured, and the sodium hypochlorite was diluted to an available chlorine concentration of 1000 ppm or 500 ppm. (3) The available chlorine concentration of the diluted solution was measured to find the available chlorine concentration prior to contact with a treatment sheet. (4) Treatment sheets were stacked, rolled up and inserted into a 200 ml-capacity PET bottle. A solution diluted so that the weight ratio of treatment sheet: agent solution would be 1:3 was poured into the 200 ml-capacity PET bottle containing the treatment sheets. (5) After contact with treatment sheets, treatment sheets were pulled out from the 200 ml-capacity PET bottle immediately after contact, after 1 hour, after 2 hours, after 3 hours, after 12 hours, after 24 hours, after 48 hours (after 2 days), after 72 hours (after 3 days), and after 168 hours (after 7 days). The sheets were used as specimens for examining available chlorine concentrations. (6) Solutions from the treatment sheets, the specimens pulled out from the 200 ml-capacity PET bottle, were wrung out into a 100 mL beaker. The available chlorine concentration of the solution was measured.
1. About 5 g of solution that was wrung out from the specimen was collected in a triangular flask with a stopper. 2. After adding 10 mL of 10 w/w % potassium iodide to the triangular flask with a stopper, 10 mL of 10% sulfuric acid was added. 3. After sealing, the mixture was left standing for 15 minutes in the dark. 4. 0.1 mol/L sodium thiosulfate solution was added until the color became light yellow. About 1 mL of 1 w/w % starch solution was added, and 0.1 mol/L sodium thiosulfate solution was added until the color of the solution became colorless. 5. Chlorine titer was found by the following equation.
R; Chlorine titer value a; Amount of 0.1 mol/L sodium thiosulfate solution added (g) f; Factor of 0.1 mol/L sodium thiosulfate solution w; Weight of measured specimen solution (g) 0.0035; Amount of chlorine corresponding to 1 g of 0.1 mol/L sodium thiosulfate 100; Percentage

[2] = test system: Enterohemorrhagic Escherichia coli O157; test: Permeability of pathogenic microbes when treatment sheets were laid on vomit; format: cell-based; conditions: 1000 ppm available chlorine
Excerpt: (§1) 1) Chlorous acid aqueous solution formulation (see Example 1: Table 11) Treatment sheet (material: 100% cotton): (about 27×40 cm) *Impregnated at a ratio of weight of treatment sheet (g): amount of liquid (ml)=1:3 2) Imitation vomit (hereinafter, referred to as vomit) Miso solution: adjusted to pH 2 with hydrochloric acid 3) Test Microbes that were used E. coli: Escherichia coli IF03927 Staphylococcus aureus: Staphylococcus aureus IF0 12732 Thermoduric Microbes (Bacillus cereus): Bacillus cereus NBRC15305 Microbes of the genus Salmonella: Salmonella Enteritidis IF03313 Enterohemorrhagic Escherichia coli 0157: Escherichia coli 0157 Enterohemorrhagic Escherichia coli 0111: Escherichia coli 0111 Enterohemorrhagic Escherichia coli 026: Escherichia coli O26
(§2) Permeability of pathogenic microbes into a treatment sheet when treating vomit was examined to compare effects of preventing secondary contamination. (1) Imitation vomit is spread in an area about the size of an A4 sheet. (2) 30 agent solution-containing treatment sheets were laid thereon and left standing for 10 minutes. (3) Treatment sheets were removed one at a time from the top. After diluting with saline, the sample was spread in a petri dish and cultured.

[3] = test system: Enterohemorrhagic Escherichia coli O26; test: as above; format: cell-based; conditions: 1000 ppm available chlorine
Excerpt: as §1, §2

[4] = test system: Salmonella Enteritidis IF03313; test: as above; format: cell-based; conditions: 1000 ppm available chlorine
Excerpt: as §1, §2

OCl [Sodium Hypochlorite, sodium hypochlorite]
Available Chlorine Concentration ([1]; set concentration 500, 1 hour of contact): 175 ppm | Available Chlorine Concentration ([1]; set concentration 500, 2 hours of contact): 168 ppm | Available Chlorine Concentration ([1]; set concentration 500, 3 hours of contact): 144 ppm | Available Chlorine Concentration ([1]; set concentration 500, 12 hours of contact): 91 ppm | Available Chlorine Concentration ([1]; set concentration 500, 24 hours of contact): 68 ppm | Available Chlorine Concentration ([1]; set concentration 500, 48 hours of contact): 39 ppm | Available Chlorine Concentration ([1]; set concentration 500, 72 hours of contact): 39 ppm | Available Chlorine Concentration ([1]; set concentration 500, 168 hours of contact): 37 ppm | Available Chlorine Concentration ([1]; set concentration 500, 504 hours of contact): 32 ppm | Available Chlorine Concentration ([1]; set concentration 500, 720 hours of contact): 20 ppm | Available Chlorine Concentration ([1]; set concentration 500, before contact with treatment sheet): 549 ppm | Available Chlorine Concentration ([1]; set concentration 500, immediately after contact): 352 ppm | Available Chlorine Concentration ([1]; set concentration 1000, 1 hour of contact): 631 ppm | Available Chlorine Concentration ([1]; set concentration 1000, 2 hours of contact): 595 ppm | Available Chlorine Concentration ([1]; set concentration 1000, 3 hours of contact): 515 ppm | Available Chlorine Concentration ([1]; set concentration 1000, 12 hours of contact): 184 ppm | Available Chlorine Concentration ([1]; set concentration 1000, 24 hours of contact): 89 ppm | Available Chlorine Concentration ([1]; set concentration 1000, 48 hours of contact): 76 ppm | Available Chlorine Concentration ([1]; set concentration 1000, 72 hours of contact): 54 ppm | Available Chlorine Concentration ([1]; set concentration 1000, 168 hours of contact): 40 ppm | Available Chlorine Concentration ([1]; set concentration 1000, 504 hours of contact): 34 ppm | Available Chlorine Concentration ([1]; set concentration 1000, 720 hours of contact): 24 ppm | Available Chlorine Concentration ([1]; set concentration 1000, before contact with treatment sheet): 1045 ppm | Available Chlorine Concentration ([1]; set concentration 1000, immediately after contact): 690 ppm | Microbe count, 1 sheet laid on imitation vomit ([2]; Day 0 at 25° C.): <10 | Microbe count, 2 sheets laid on imitation vomit ([2]; Day 0 at 25° C.): <10 | Microbe count, 3 sheets laid on imitation vomit ([2]; Day 0 at 25° C.): <10 | Microbe count, 4 sheets laid on imitation vomit ([2]; Day 0 at 25° C.): <10 | Microbe count, 5 sheets laid on imitation vomit ([2]; Day 0 at 25° C.): <10 | Microbe count, 6 sheets laid on imitation vomit ([2]; Day 0 at 25° C.): <10 | Microbe count, 8 sheets laid on imitation vomit ([2]; Day 0 at 25° C.): <10 | Microbe count, 10 sheets laid on imitation vomit ([2]; Day 0 at 25° C.): <10 | Microbe count, 20 sheets laid on imitation vomit ([2]; Day 0 at 25° C.): <10 | Microbe count, 30 sheets laid on imitation vomit ([2]; Day 0 at 25° C.): <10 | Microbe count, 1 sheet laid on imitation vomit ([2]; Day 7 at 25° C.): >10^6 | Microbe count, 2 sheets laid on imitation vomit ([2]; Day 7 at 25° C.): >10^6 | Microbe count, 3 sheets laid on imitation vomit ([2]; Day 7 at 25° C.): >10^6 | Microbe count, 4 sheets laid on imitation vomit ([2]; Day 7 at 25° C.): >10^6 | Microbe count, 5 sheets laid on imitation vomit ([2]; Day 7 at 25° C.): >10^6 | Microbe count, 6 sheets laid on imitation vomit ([2]; Day 7 at 25° C.): >10^6 | Microbe count, 8 sheets laid on imitation vomit ([2]; Day 7 at 25° C.): 1.1 × 10^4 | Microbe count, 10 sheets laid on imitation vomit ([2]; Day 7 at 25° C.): 7.1 × 10^2 | Microbe count, 20 sheets laid on imitation vomit ([2]; Day 7 at 25° C.): <10 | Microbe count, 30 sheets laid on imitation vomit ([2]; Day 7 at 25° C.): <10 | Microbe count, 1 sheet laid on imitation vomit ([3]; Day 0 at 25° C.): <10 | Microbe count, 2 sheets laid on imitation vomit ([3]; Day 0 at 25° C.): <10 | Microbe count, 3 sheets laid on imitation vomit ([3]; Day 0 at 25° C.): <10 | Microbe count, 4 sheets laid on imitation vomit ([3]; Day 0 at 25° C.): <10 | Microbe count, 5 sheets laid on imitation vomit ([3]; Day 0 at 25° C.): <10 | Microbe count, 6 sheets laid on imitation vomit ([3]; Day 0 at 25° C.): <10 | Microbe count, 8 sheets laid on imitation vomit ([3]; Day 0 at 25° C.): <10 | Microbe count, 10 sheets laid on imitation vomit ([3]; Day 0 at 25° C.): <10 | Microbe count, 20 sheets laid on imitation vomit ([3]; Day 0 at 25° C.): <10 | Microbe count, 30 sheets laid on imitation vomit ([3]; Day 0 at 25° C.): <10 | Microbe count, 1 sheet laid on imitation vomit ([3]; Day 7 at 25° C.): >10^6 | Microbe count, 2 sheets laid on imitation vomit ([3]; Day 7 at 25° C.): >10^6 | Microbe count, 3 sheets laid on imitation vomit ([3]; Day 7 at 25° C.): >10^6 | Microbe count, 4 sheets laid on imitation vomit ([3]; Day 7 at 25° C.): >10^6 | Microbe count, 5 sheets laid on imitation vomit ([3]; Day 7 at 25° C.): >10^6 | Microbe count, 6 sheets laid on imitation vomit ([3]; Day 7 at 25° C.): >10^6 | Microbe count, 8 sheets laid on imitation vomit ([3]; Day 7 at 25° C.): >10^6 | Microbe count, 10 sheets laid on imitation vomit ([3]; Day 7 at 25° C.): >10^6 | Microbe count, 20 sheets laid on imitation vomit ([3]; Day 7 at 25° C.): >10^6 | Microbe count, 30 sheets laid on imitation vomit ([3]; Day 7 at 25° C.): >10^6 | Microbe count, 1 sheet laid on imitation vomit ([4]; Day 0 at 25° C.): 2.0 × 10^2 | Microbe count, 2 sheets laid on imitation vomit ([4]; Day 0 at 25° C.): <10 | Microbe count, 3 sheets laid on imitation vomit ([4]; Day 0 at 25° C.): <10 | Microbe count, 4 sheets laid on imitation vomit ([4]; Day 0 at 25° C.): <10 | Microbe count, 5 sheets laid on imitation vomit ([4]; Day 0 at 25° C.): <10 | Microbe count, 6 sheets laid on imitation vomit ([4]; Day 0 at 25° C.): <10 | Microbe count, 8 sheets laid on imitation vomit ([4]; Day 0 at 25° C.): <10 | Microbe count, 10 sheets laid on imitation vomit ([4]; Day 0 at 25° C.): <10 | Microbe count, 20 sheets laid on imitation vomit ([4]; Day 0 at 25° C.): <10 | Microbe count, 30 sheets laid on imitation vomit ([4]; Day 0 at 25° C.): <10 | Microbe count, 1 sheet laid on imitation vomit ([4]; Day 7 at 25° C.): >10^6 | Microbe count, 2 sheets laid on imitation vomit ([4]; Day 7 at 25° C.): >10^6 | Microbe count, 3 sheets laid on imitation vomit ([4]; Day 7 at 25° C.): >10^6 | Microbe count, 4 sheets laid on imitation vomit ([4]; Day 7 at 25° C.): >10^6 | Microbe count, 5 sheets laid on imitation vomit ([4]; Day 7 at 25° C.): >10^6 | Microbe count, 6 sheets laid on imitation vomit ([4]; Day 7 at 25° C.): >10^6 | Microbe count, 8 sheets laid on imitation vomit ([4]; Day 7 at 25° C.): 1.1 × 10^4 | Microbe count, 10 sheets laid on imitation vomit ([4]; Day 7 at 25° C.): 7.1 × 10^2 | Microbe count, 20 sheets laid on imitation vomit ([4]; Day 7 at 25° C.): <10 | Microbe count, 30 sheets laid on imitation vomit ([4]; Day 7 at 25° C.): <10

Source: patent US20170015555A1, “LONG-TERM PRESERVATION AND NOVEL APPLICATION OF CHLOROUS ACID AQUEOUS SOLUTION FORMULATION” (priority 2013, published 2017)
